Each structure is given as a SMILES string.

The term IC50 denotes the point on the concentration scale where inhibition reaches its midpoint. As usually defined, the EC50 is the concentration at which the effect is half-maximal. Usually NOAEL stands for the highest dose or exposure tested at which no adverse effect was seen.

Data set [1] has as its target T1, Indoleamine 2,3-dioxygenase 1 (Homo sapiens, UniProt P14902). Briefly: Inhibition of recombinant human IDO1 assessed as conversion of […] incubated for 1 hr by fluorescence analysis.
The target in data set [2] is T1, Indoleamine 2,3-dioxygenase 1. Briefly: Inhibition of IDO1 in IFNgamma-stimulated human HeLa cells incubated for 24 hrs. Format: cell-based.
Data set [3] can be described thus: Toxicity in dog administered as bid for 28 days. Format: organism-based, Canis lupus familiaris. The conditions noted are these: in vivo.
The nature of data set [4]: Toxicity in rat administered as bid for 28 days. Format: organism-based. To be noted: in vivo.
Data set [5] has as its system Mus musculus. Briefly: Reduction of kynurenine in LPS-stimulated mouse plasma at 50 mg/kg, po by LC/MS/MS analysis. Format: functional. Also noted: scale not given: the % may be the effect or the level left.
Data set [6] relates to Mus musculus. Kind of data set: Reduction of kynurenine in LPS-stimulated mouse tissue at 50 mg/kg, po by LC/MS/MS analysis. Format: functional. Also noted: scale not given: the % may be the effect or the level left.

T1 sequence (P14902 whole entry): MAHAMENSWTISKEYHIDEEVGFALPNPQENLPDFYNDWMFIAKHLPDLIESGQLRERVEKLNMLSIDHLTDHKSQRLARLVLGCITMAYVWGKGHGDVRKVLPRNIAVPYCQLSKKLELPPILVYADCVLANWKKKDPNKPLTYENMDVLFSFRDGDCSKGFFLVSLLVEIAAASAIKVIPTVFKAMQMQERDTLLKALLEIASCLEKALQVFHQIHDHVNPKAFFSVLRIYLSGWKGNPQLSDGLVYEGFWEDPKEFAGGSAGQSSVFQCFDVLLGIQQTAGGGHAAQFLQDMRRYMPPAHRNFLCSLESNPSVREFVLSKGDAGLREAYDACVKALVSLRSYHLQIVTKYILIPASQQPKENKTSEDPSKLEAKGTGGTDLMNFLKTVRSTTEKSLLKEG

In the case of `OC(CC1c2ccccc2-c2cnnn21)C1CCCCC1` (stereo not drawn), the IC50 in data set [1] was more than 10 µM. For the same compound, the EC50 in data set [2] is more than 10 µM.
Regarding `OC(Cn1c2ccccc2c2ccncc21)C1CCCCC1` (stereo not drawn), the IC50 in data set [1] was more than 10 µM.
Turning to `Cc1ncc2n1C(CC(O)C1CCCCC1)c1ccccc1-2` (stereo not drawn), the concentration for half-maximal inhibition (IC50) in data set [1] is more than 10 µM. The EC50 in data set [2] is more than 10 µM.
Take `OC(Cn1c2ccccc2c2cccnc21)C1CCCCC1` (stereo not drawn): the IC50 in data set [1] is more than 10 µM.
Regarding `OC(CC1Nc2ccccc2-c2cncn21)C1CCCCC1` (stereo not drawn), the IC50 in data set [1] was found to be 1.14 µM. The compound also displayed an EC50 in data set [2] of more than 10 µM.
Take `O=C(Cn1c2ccccc2c2cccnc21)C1CCCCC1`: the IC50 in data set [1] is more than 10 µM.
For the compound `OC(CC1c2ccccc2-c2cncn21)C1CCCCC1` (mixture of isomers), the NOAEL at 672 h in data set [3] and in data set [4] was 80 mg/kg/day throughout. Besides, the Activity in the data set on Mus musculus [5] and in the data set on Mus musculus [6] was 50% in each case.

The values above are taken from ChEMBL document CHEMBL3751777, “Important Hydrogen Bond Networks in Indoleamine 2,3-Dioxygenase 1 (IDO1) Inhibitor Design Revealed by Crystal Structures of Imidazoleisoindole Derivatives with IDO1” (J Med Chem, 2016).
